PubChem BioAssay (NCI)
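96-well plates; 48 h exposure; 5 concentrations. Endpoints by linear interpolation between flanking doses. Not reached: highest tested concentration assigned. TGI: concentration producing complete growth inhibition.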

Key:
Assay in all cases: inhibition of tumour cell growth, NCI panel, 48 h
NCI-H23 lung = tested on: NCI-H23 lung
NCI-H522 lung = tested on: NCI-H522 lung
SF-539 CNS = tested on: SF-539 CNS
K-562 leukemia = tested on: K-562 leukemia
RXF 393 renal = tested on: RXF 393 renal
OVCAR-4 ovarian = tested on: OVCAR-4 ovarian
MOLT-4 leukemia = tested on: MOLT-4 leukemia
HCC-2998 colon = tested on: HCC-2998 colon
OVCAR-3 ovarian = tested on: OVCAR-3 ovarian
HCT-116 colon = tested on: HCT-116 colon
HOP-18 NSCLC = tested on: HOP-18 NSCLC
U251 CNS = tested on: U251 CNS
CCRF-CEM leukemia = tested on: CCRF-CEM leukemia
NCI-H226 lung = tested on: NCI-H226 lung
MALME-3M melanoma = tested on: MALME-3M melanoma
UO-31 renal = tested on: UO-31 renal
IGROV1 ovarian = tested on: IGROV1 ovarian
PC-3 prostate = tested on: PC-3 prostate
MDA-N = tested on: MDA-N
HS 578T breast = tested on: HS 578T breast

CCOC(=O)c1[nH]c(CN(C)Cc2[nH]c(C(=O)OCC)c(C)c2C(=O)OCc2ccccc2)c(C(=O)OCc2ccccc2)c1C
TGI (NCI-H23 lung): 42 µM
TGI (NCI-H522 lung): 36.7 µM
TGI (SF-539 CNS): 21.3 µM
TGI (K-562 leukemia): > 100 µM
TGI (RXF 393 renal): 22.3 µM
TGI (OVCAR-4 ovarian): 32.1 µM
TGI (MOLT-4 leukemia): > 100 µM
TGI (HCC-2998 colon): > 100 µM
TGI (OVCAR-3 ovarian): 28.3 µM
TGI (HCT-116 colon): 38 µM
TGI (HOP-18 NSCLC): > 100 µM
TGI (U251 CNS): 34 µM
TGI (CCRF-CEM leukemia): > 100 µM
TGI (NCI-H226 lung): 32.7 µM
TGI (MALME-3M melanoma): > 100 µM
TGI (UO-31 renal): > 100 µM
TGI (IGROV1 ovarian): > 100 µM

COc1cccc(NC(=O)CC(=O)N2N=C(C)C(N=Nc3ccc(S(=O)(=O)CCOS(=O)(=O)O)cc3)C2=O)c1 (configuration not stated)
TGI (NCI-H23 lung): 20.9 µM
TGI (NCI-H522 lung): 2.48 µM
TGI (PC-3 prostate): 14.5 µM
TGI (SF-539 CNS): 28.3 µM
TGI (K-562 leukemia): > 100 µM
TGI (RXF 393 renal): 15.9 µM
TGI (OVCAR-4 ovarian): 62.5 µM
TGI (MOLT-4 leukemia): > 100 µM
TGI (HCC-2998 colon): 29.1 µM
TGI (OVCAR-3 ovarian): 17 µM
TGI (MDA-N): 14 µM
TGI (HCT-116 colon): 13 µM
TGI (U251 CNS): 17.9 µM
TGI (HS 578T breast): 88 µM
TGI (CCRF-CEM leukemia): > 100 µM
TGI (NCI-H226 lung): 27.1 µM
TGI (MALME-3M melanoma): 23.2 µM
TGI (UO-31 renal): 24.5 µM
TGI (IGROV1 ovarian): 17.3 µM

CN(C)CC1(Cc2ccccc2)CCC(Cc2ccccc2)C1=O (configuration not stated)
TGI (NCI-H23 lung): 36.1 µM
TGI (NCI-H522 lung): 7.59 µM
TGI (PC-3 prostate): 22.9 µM
TGI (SF-539 CNS): 33.5 µM
TGI (K-562 leukemia): 7.74 µM
TGI (RXF 393 renal): 27.5 µM
TGI (OVCAR-4 ovarian): 31 µM
TGI (MOLT-4 leukemia): 9.11 µM
TGI (HCC-2998 colon): 21.4 µM
TGI (OVCAR-3 ovarian): 16.2 µM
TGI (MDA-N): 25 µM
TGI (HCT-116 colon): 26.7 µM
TGI (HOP-18 NSCLC): 21.3 µM
TGI (U251 CNS): 31.8 µM
TGI (HS 578T breast): 48.9 µM
TGI (CCRF-CEM leukemia): 12.5 µM
TGI (NCI-H226 lung): 37.9 µM
TGI (MALME-3M melanoma): 27.2 µM
TGI (UO-31 renal): 30.7 µM
TGI (IGROV1 ovarian): 24.1 µM

Cn1nc2ccc3nccc(N(CCO)CCO)c3c2n1
TGI (NCI-H23 lung): > 100 µM
TGI (NCI-H522 lung): > 100 µM
TGI (SF-539 CNS): > 100 µM
TGI (K-562 leukemia): > 100 µM
TGI (RXF 393 renal): > 100 µM
TGI (MOLT-4 leukemia): > 100 µM
TGI (HCC-2998 colon): > 100 µM
TGI (OVCAR-3 ovarian): > 100 µM
TGI (HCT-116 colon): > 100 µM
TGI (HOP-18 NSCLC): > 100 µM
TGI (U251 CNS): > 100 µM
TGI (CCRF-CEM leukemia): > 100 µM
TGI (NCI-H226 lung): > 100 µM
TGI (MALME-3M melanoma): > 100 µM
TGI (UO-31 renal): > 100 µM
TGI (IGROV1 ovarian): > 100 µM

CC(C)(Oc1ccc2c(=O)cc(-c3ccccc3)oc2c1)C(=O)Nc1c(Cl)cccc1Cl
TGI (NCI-H23 lung): > 100 µM
TGI (NCI-H522 lung): > 100 µM
TGI (SF-539 CNS): > 100 µM
TGI (K-562 leukemia): > 100 µM
TGI (RXF 393 renal): 30.2 µM
TGI (MOLT-4 leukemia): > 100 µM
TGI (OVCAR-3 ovarian): > 100 µM
TGI (HCT-116 colon): > 100 µM
TGI (HOP-18 NSCLC): > 100 µM
TGI (U251 CNS): > 100 µM
TGI (CCRF-CEM leukemia): > 100 µM
TGI (MALME-3M melanoma): > 100 µM
TGI (UO-31 renal): > 100 µM
TGI (IGROV1 ovarian): > 100 µM

COC(=O)CCc1cccnc1/C=N/O
TGI (NCI-H23 lung): > 100 µM
TGI (NCI-H522 lung): > 100 µM
TGI (SF-539 CNS): > 100 µM
TGI (K-562 leukemia): > 100 µM
TGI (RXF 393 renal): > 100 µM
TGI (OVCAR-4 ovarian): > 100 µM
TGI (MOLT-4 leukemia): > 100 µM
TGI (OVCAR-3 ovarian): > 100 µM
TGI (HCT-116 colon): > 100 µM
TGI (HOP-18 NSCLC): > 100 µM
TGI (U251 CNS): > 100 µM
TGI (CCRF-CEM leukemia): > 100 µM
TGI (NCI-H226 lung): > 100 µM
TGI (MALME-3M melanoma): > 100 µM
TGI (UO-31 renal): > 100 µM
TGI (IGROV1 ovarian): > 100 µM

CCCCCCCCCCCCn1[nH]c(C)c(C(=S)SCCCCCCCC)c1=O
TGI (NCI-H23 lung): > 100 µM
TGI (NCI-H522 lung): > 100 µM
TGI (SF-539 CNS): > 100 µM
TGI (K-562 leukemia): > 100 µM
TGI (RXF 393 renal): > 80.9 µM
TGI (OVCAR-4 ovarian): > 100 µM
TGI (MOLT-4 leukemia): > 77.2 µM
TGI (HCC-2998 colon): > 100 µM
TGI (OVCAR-3 ovarian): > 100 µM
TGI (HCT-116 colon): > 100 µM
TGI (HOP-18 NSCLC): > 100 µM
TGI (U251 CNS): > 100 µM
TGI (CCRF-CEM leukemia): > 78.3 µM
TGI (NCI-H226 lung): > 94.8 µM
TGI (MALME-3M melanoma): > 100 µM
TGI (UO-31 renal): > 100 µM
TGI (IGROV1 ovarian): > 100 µM

Brc1ccc2c(c1)C1C(CO2)C(c2ccccc2)=NN1c1ccccc1 (configuration not stated)
TGI (NCI-H23 lung): > 100 µM
TGI (K-562 leukemia): > 100 µM
TGI (RXF 393 renal): > 100 µM
TGI (MOLT-4 leukemia): > 100 µM
TGI (HCC-2998 colon): > 100 µM
TGI (OVCAR-3 ovarian): > 100 µM
TGI (HCT-116 colon): > 100 µM
TGI (HOP-18 NSCLC): > 100 µM
TGI (U251 CNS): > 100 µM
TGI (CCRF-CEM leukemia): > 100 µM
TGI (MALME-3M melanoma): > 100 µM
TGI (UO-31 renal): > 100 µM
TGI (IGROV1 ovarian): > 100 µM

O=C(O)c1cc(O)c2c(c1)C([C@@H]1c3cccc(O)c3C(=O)c3c(O)cc(C(=O)O)cc31)c1cccc(O)c1C2=O (some centres not stated)
TGI (NCI-H23 lung): > 100 µM
TGI (NCI-H522 lung): 44.6 µM
TGI (PC-3 prostate): > 100 µM
TGI (SF-539 CNS): 55 µM
TGI (K-562 leukemia): 86.4 µM
TGI (RXF 393 renal): 85 µM
TGI (OVCAR-4 ovarian): > 100 µM
TGI (MOLT-4 leukemia): 69.2 µM
TGI (HCC-2998 colon): > 100 µM
TGI (OVCAR-3 ovarian): > 100 µM
TGI (MDA-N): 41.5 µM
TGI (HCT-116 colon): 38.1 µM
TGI (U251 CNS): 67.8 µM
TGI (HS 578T breast): 69.4 µM
TGI (CCRF-CEM leukemia): > 100 µM
TGI (NCI-H226 lung): > 100 µM
TGI (MALME-3M melanoma): 44.7 µM
TGI (UO-31 renal): > 100 µM
TGI (IGROV1 ovarian): 49.4 µM

CC(=O)NC(CCCNC(=O)NCCCl)C(=O)NCc1ccccc1 (configuration not stated)
TGI (NCI-H23 lung): > 100 µM
TGI (NCI-H522 lung): > 100 µM
TGI (SF-539 CNS): > 100 µM
TGI (K-562 leukemia): > 100 µM
TGI (RXF 393 renal): > 100 µM
TGI (OVCAR-4 ovarian): > 100 µM
TGI (MOLT-4 leukemia): > 100 µM
TGI (HCC-2998 colon): > 100 µM
TGI (OVCAR-3 ovarian): > 100 µM
TGI (HCT-116 colon): > 100 µM
TGI (HOP-18 NSCLC): > 100 µM
TGI (U251 CNS): > 100 µM
TGI (CCRF-CEM leukemia): > 100 µM
TGI (NCI-H226 lung): > 100 µM
TGI (MALME-3M melanoma): > 100 µM
TGI (UO-31 renal): > 100 µM

CCN(CC)c1ccc2cc(C(=O)Nc3nc(C45CC6CC(CC(C6)C4)C5)cs3)c(=O)oc2c1
TGI (NCI-H23 lung): > 100 µM
TGI (NCI-H522 lung): > 100 µM
TGI (PC-3 prostate): > 100 µM
TGI (SF-539 CNS): > 100 µM
TGI (K-562 leukemia): > 100 µM
TGI (RXF 393 renal): > 100 µM
TGI (OVCAR-4 ovarian): > 100 µM
TGI (MOLT-4 leukemia): > 100 µM
TGI (HCC-2998 colon): > 100 µM
TGI (OVCAR-3 ovarian): > 100 µM
TGI (MDA-N): > 100 µM
TGI (HCT-116 colon): > 100 µM
TGI (U251 CNS): > 100 µM
TGI (HS 578T breast): > 100 µM
TGI (CCRF-CEM leukemia): > 100 µM
TGI (NCI-H226 lung): > 100 µM
TGI (MALME-3M melanoma): > 100 µM
TGI (UO-31 renal): > 100 µM
TGI (IGROV1 ovarian): > 100 µM

CCOC(=O)/C(C[C@H]1OC(C)(C)O[C@@H]1[C@H]1COC(C)(C)O1)=N/O
TGI (NCI-H23 lung): > 100 µM
TGI (NCI-H522 lung): > 100 µM
TGI (PC-3 prostate): > 100 µM
TGI (SF-539 CNS): > 100 µM
TGI (K-562 leukemia): > 100 µM
TGI (RXF 393 renal): > 100 µM
TGI (OVCAR-4 ovarian): > 100 µM
TGI (MOLT-4 leukemia): > 100 µM
TGI (HCC-2998 colon): > 100 µM
TGI (OVCAR-3 ovarian): > 100 µM
TGI (MDA-N): > 100 µM
TGI (HCT-116 colon): > 100 µM
TGI (U251 CNS): > 100 µM
TGI (HS 578T breast): > 100 µM
TGI (CCRF-CEM leukemia): > 100 µM
TGI (NCI-H226 lung): > 100 µM
TGI (MALME-3M melanoma): > 100 µM
TGI (UO-31 renal): > 100 µM
TGI (IGROV1 ovarian): > 100 µM

C/C(CC(=O)NC1=CC=C(NC(=O)C/C(C)=N\Nc2ccccc2)CC1)=N/Nc1ccccc1
TGI (NCI-H23 lung): > 100 µM
TGI (NCI-H522 lung): > 100 µM
TGI (SF-539 CNS): > 100 µM
TGI (K-562 leukemia): > 100 µM
TGI (RXF 393 renal): > 100 µM
TGI (OVCAR-4 ovarian): > 100 µM
TGI (MOLT-4 leukemia): > 100 µM
TGI (HCC-2998 colon): > 100 µM
TGI (OVCAR-3 ovarian): > 100 µM
TGI (HCT-116 colon): > 100 µM
TGI (HOP-18 NSCLC): > 100 µM
TGI (U251 CNS): > 100 µM
TGI (CCRF-CEM leukemia): > 100 µM
TGI (NCI-H226 lung): > 100 µM
TGI (MALME-3M melanoma): > 100 µM
TGI (UO-31 renal): > 100 µM
TGI (IGROV1 ovarian): > 100 µM
